Source: PMC5962679 (Frontiers in Cellular and Infection Microbiology, 2018)
Ends that are not written are not given here.

Columns and labels:
Test in all cases: biochemical
Format in all cases: binding
Conditions in all cases: for inhibition at 250 µM: 24 h, read-out: Binding percentage
HLA-DRB1*1101 = HLA-DRB1*1101 (Homo sapiens, UniProt P01903+P01911, A100R/A169T/A87E/I96F/K41T/L162R/M171V/P40S/Q125H/Q178H/Q39Y/Q99D/R42S/S66Y/T262R/V115G/W38E)
HLA-DRB1*0401 = target: T1, HLA-DRB1*0401 (Homo sapiens, UniProt P01903+P01911, A100K/A169T/F76Y/I96L/K127E/L162R/M171V/N62H/P40V/Q125Y/R42H/S133A/S149N/S66Y/V115G/V209L/W38E)
T1 construct: homozygous lymphoblastoid B-cell lines (International Histocompatibility Working Group); host or cells: human HLA-DRB1*0401 homozygous lymphoblastoid B-cell line

HLA-DRB1*0701 = HLA-DRB1*0701 (Homo sapiens, UniProt P01903+P01911, A100R/A102G/A103Q/D57E/D86V/E43K/F76Y/K127E/L162R/M171V/P40G/Q125H/Q99D/R33Q/R42Y/R54Q/S133A/S66F/T210M/V115G/Y107V/Y59L/Y89S)
HLA-DRB1*1302 = HLA-DRB1*1302 (Homo sapiens, UniProt P01903+P01911, A100E/A169T/K41T/L162R/M171V/P40S/Q125H/Q178H/Q39Y/Q99D/R42S/S66N/T262R/V115G/W38E/Y61H)
Sequence of HLA-DRB1*1302 (P01903 26-254 limits assumed, other chains not shown): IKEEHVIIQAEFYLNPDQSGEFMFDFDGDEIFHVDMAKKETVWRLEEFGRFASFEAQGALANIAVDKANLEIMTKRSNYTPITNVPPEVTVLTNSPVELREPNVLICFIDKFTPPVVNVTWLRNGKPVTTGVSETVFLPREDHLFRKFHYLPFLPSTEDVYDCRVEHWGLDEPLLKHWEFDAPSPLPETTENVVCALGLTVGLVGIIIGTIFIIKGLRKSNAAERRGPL

Sequence of HLA-DRB1*1101 (P01903 26-254 limits assumed, other chains not shown): as above

Sequence: TPIIVKYDNTHAKNR [compound 39048]
- inhibition at 250 µM (HLA-DRB1*1101): 16.8%
- IC50 (HLA-DRB1*0401): 11.9 µM
- inhibition at 250 µM (HLA-DRB1*0401): 90.7%
- inhibition at 250 µM (HLA-DRB1*0701): 10.5%
- inhibition at 250 µM (HLA-DRB1*1302): 3.3%

Sequence: QTAFRKFFKKIISLG [compound 39150]
- IC50 (HLA-DRB1*1101): 83.4 µM
- inhibition at 250 µM (HLA-DRB1*1101): 87.6%
- IC50 (HLA-DRB1*0401): 33.7 µM
- inhibition at 250 µM (HLA-DRB1*0401): 83.6%
- IC50 (HLA-DRB1*0701): 51.8 µM
- inhibition at 250 µM (HLA-DRB1*0701): 67.2%
- inhibition at 250 µM (HLA-DRB1*1302): 7.7%

Sequence: NYEIYIASSSNIYLM [compound 39046]
- IC50 (HLA-DRB1*1101): 120 µM
- inhibition at 250 µM (HLA-DRB1*1101): 82.9%
- IC50 (HLA-DRB1*0401): 28.4 µM
- inhibition at 250 µM (HLA-DRB1*0401): 91.8%
- IC50 (HLA-DRB1*0701): 23.3 µM
- inhibition at 250 µM (HLA-DRB1*0701): 91.5%
- IC50 (HLA-DRB1*1302): 29.6 µM
- inhibition at 250 µM (HLA-DRB1*1302): 92.8%

Sequence: DKSFISEANSFRNEE [compound 39149]
- inhibition at 250 µM (HLA-DRB1*1101): 36.5%
- IC50 (HLA-DRB1*0401): 26.3 µM
- inhibition at 250 µM (HLA-DRB1*0401): 85.8%
- inhibition at 250 µM (HLA-DRB1*0701): 42.8%
- inhibition at 250 µM (HLA-DRB1*1302): 33.5%

Sequence: KLKYIFKRRKTMKKK [compound 39151]
- IC50 (HLA-DRB1*1101): 51.1 µM
- inhibition at 250 µM (HLA-DRB1*1101): 78.5%
- IC50 (HLA-DRB1*0401): 40 µM
- inhibition at 250 µM (HLA-DRB1*0401): 65.3%
- inhibition at 250 µM (HLA-DRB1*0701): 36%
- inhibition at 250 µM (HLA-DRB1*1302): 13.1%

Sequence: LKPFYSLETMLMANS [compound 39147]
- IC50 (HLA-DRB1*1101): 23 µM
- inhibition at 250 µM (HLA-DRB1*1101): 79.3%
- IC50 (HLA-DRB1*0401): 4.6 µM
- inhibition at 250 µM (HLA-DRB1*0401): 92.6%
- IC50 (HLA-DRB1*0701): 26 µM
- inhibition at 250 µM (HLA-DRB1*0701): 83.2%
- IC50 (HLA-DRB1*1302): 79 µM
- inhibition at 250 µM (HLA-DRB1*1302): 63%

Sequence: NVRKFFLNDVSSIRH [compound 39148]
- IC50 (HLA-DRB1*1101): 83.4 µM
- inhibition at 250 µM (HLA-DRB1*1101): 73.8%
- IC50 (HLA-DRB1*0401): 11.9 µM
- inhibition at 250 µM (HLA-DRB1*0401): 83%
- IC50 (HLA-DRB1*0701): 39.7 µM
- inhibition at 250 µM (HLA-DRB1*0701): 79.9%
- IC50 (HLA-DRB1*1302): 7.4 µM
- inhibition at 250 µM (HLA-DRB1*1302): 94.2%
